Results on one compound are retold here after patent US20220370464A1, “COMPOSITIONS AND METHODS OF TREATING OR PREVENTING OCULAR INFECTIONS WITH FILOCICLOVIR” (Microbiotix, Inc., priority 2019, published 2022).

In one experiment the test system is AdV 6. The experiment in a line: Antiviral EC50 against AdV 6 (method not given). The class given is cell-based, adenovirus 6. Particulars: Human mastadenovirus C; AdV 6, summary table.
A further experiment concerns HHV-6B. The conditions noted are these: cited from earlier work.
Another experiment relates to HHV-8. Particulars: γ Herpesvirus, cited from earlier work.

Read-outs that look alike come from different tables or passages of the source.

Broadly, the EC50 is the concentration needed to bring the measured effect to its halfway point. Consider `Nc1nc2c(ncn2/C=C2/CC2(CO)CO)c(=O)[nH]1` [Filociclovir, 2-amino-9-{(Z)-[2,2-bis(hydroxymethyl)cyclopropylidene]methyl}-3,9-dihydro-6H-purin-6-one], for which the EC50 is 2 µM in the experiment on AdV 6; 2.3 ± 1 µM with HHV-6B; at most 10 µM in the experiment with HHV-6B (listed as filociclovir); at most 10 µM in the experiment with HHV-8 (listed as filociclovir); 5.6 ± 5 µM with HHV-8.
